Data reported in US12692253B2, “Antimicrobial compounds and methods” (Curza Global, LLC, priority 2019, dated 2026).
Where two headings read alike, the source gives them in different places.

What was measured:
[1] = tested on: E. coli S30 extract (bacterial protein synthesis); test: E. coli S30 extract coupled transcription-translation luciferase assay (inhibition of bacterial protein synthesis); type: biochemical; conditions: read-out: S30 IC50 (μM/% inhib.)
Method in brief: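 Coupled transcription-translation in E. coli S30 circular-DNA extract expressing luciferase from pBESTluc, with 8-point 2-fold compound dilutions; 1 hour at 37 °C, stopped at 4 °C. Luminescence read; % inhibition versus no-inhibitor wells, no-DNA wells as background.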

[2] = molecular target: Rabbit Reticulocyte Lysate (eukaryotic protein synthesis); test: Rabbit reticulocyte lysate luciferase assay (inhibition of eukaryotic protein synthesis); type: biochemical; conditions: read-out: Rabbit reticulocyte IC50 (μM/% inhib.)
Method in brief: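 In vitro translation of luciferase control RNA in nuclease-treated rabbit reticulocyte lysate with amino acid mixture, compounds in 2-fold serial dilution, 90 minutes at 30° C. Luminescence read after luciferase reagent; % inhibition relative to water no-inhibitor controls, with no-RNA background wells.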

A. baumannn (Ab) = test: Broth microdilution minimum inhibitory concentration (MIC), CLSI; type: cell-based; conditions: read-out: Ab + bicarb MIC
Method in brief: (§1)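 Modified CLSI method: CAMHB (± bicarbonate 6.25/25 mM or 0-50% human serum), 8-point two-fold series, triplicates, 5×10^4 CFU/well.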

E. coli (Ec) = test: as above; type: cell-based; conditions: Escherichia coli, read-out: E. coli + bicarb MIC
Method in brief: as §1

E. faecalis (Ef) = test: as above; type: cell-based; conditions: Enterococcus faecalis, read-out: Ef + bicarb MIC
Method in brief: as §1

P. aeruginosa (Pa) = test: as above; type: cell-based; conditions: Pseudomonas aeruginosa, read-out: Pa MIC + bicarb
Method in brief: as §1

S. aureus (Sa) = test: as above; type: cell-based; conditions: Staphylococcus aureus, read-out: Sa + bicarb MIC
Method in brief: as §1

[3] = class by IC50 or % inhibition @ 1 μM
[4] = growth medium supplemented with sodium bicarbonate
[5] = A. baumannn, growth medium with sodium bicarbonate
[6] = growth medium with sodium bicarbonate

| SMILES | IC50 [1, 3] | IC50 [2, 3] | MIC (A. baumannn (Ab); Acinetobacter baumannii) | MIC (E. coli (Ec); [4]) | MIC (E. faecalis (Ef); [4]) | MIC (P. aeruginosa (Pa); [4]) | MIC (S. aureus (Sa); [4]) | IC50 ([1]; % inhibition @ 1 μM) | IC50 ([2]; % inhibition @ 1 μM) | MIC (A. baumannn (Ab); [5]) | MIC (E. coli (Ec); [6]) | MIC (E. faecalis (Ef); [6]) | MIC (P. aeruginosa (Pa); [6]) | MIC (S. aureus (Sa); [6]) |
| --- | --- | --- | --- | --- | --- | --- | --- | --- | --- | --- | --- | --- | --- | --- |
| CC(C)C(Cc1ccc(-n2ccc(NC(=O)N3CCN(C(=O)C(C)(C)N)CC3)nc2=O)cc1)N1C[C@@H]2[C@@H](CN)[C@@H]2C1 (stereo partly drawn) [Compound 155] | < 0.5 µM | ≥ 1 µM | < 8 µg/mL | < 8 µg/mL | < 8 µg/mL | < 8 µg/mL | < 8 µg/mL | – | – | – | – | – | – | – |
| CC(C)CC(Cc1ccc(-n2ccc(NC(=O)N3CCN(C(=O)C(C)(C)N)CC3)nc2=O)cc1)N1C[C@@H]2[C@@H](CN)[C@@H]2C1 (stereo partly drawn) [Compound 156] | < 0.5 µM | ≥ 1 µM | < 8 µg/mL | < 8 µg/mL | < 8 µg/mL | < 8 µg/mL | < 8 µg/mL | – | – | – | – | – | – | – |
| CC(Cc1ccc(-n2ccc(NC(=O)N3CCN(C(=O)C(C)(C)N)CC3)nc2=O)cc1)N1C[C@@H]2[C@@H](CN)[C@@H]2[C@H]1CO (stereo partly drawn) [Compound 157] | < 0.5 µM | ≥ 1 µM | > 32 µg/mL | < 8 µg/mL | 8 to 32 µg/mL | > 32 µg/mL | < 8 µg/mL | – | – | – | – | – | – | – |
| CC(C)(N)C(=O)N1CCN(C(=O)Nc2ccn(-c3ccc(CCN4CC5(CNC5)C4)cc3)c(=O)n2)CC1 [Compound 160] | ≥ 1 µM | ≥ 1 µM | > 32 µg/mL | < 8 µg/mL | > 32 µg/mL | > 32 µg/mL | > 32 µg/mL | – | – | – | – | – | – | – |
| CC(C)(N)C(=O)N1CCN(C(=O)Nc2ccn(-c3ccc(CCN4CCC5(CCNC5)C4)cc3)c(=O)n2)CC1 (stereo not drawn) [Compound 161] | < 0.5 µM | ≥ 1 µM | > 32 µg/mL | < 8 µg/mL | 8 to 32 µg/mL | > 32 µg/mL | < 8 µg/mL | – | – | – | – | – | – | – |
| CC(Cc1ccc(-n2ccc(NC(=O)N3CCN(C(=O)C(C)(C)N)CC3)nc2=O)cc1)N1CC2(CNC2)C1 (stereo not drawn) [Compound 162] | ≥ 1 µM | ≥ 1 µM | > 32 µg/mL | 8 to 32 µg/mL | > 32 µg/mL | > 32 µg/mL | 8 to 32 µg/mL | – | – | – | – | – | – | – |
| CC(Cc1ccc(-n2ccc(NC(=O)N3CCN(C(=O)C(C)(C)N)CC3)nc2=O)cc1)N1CCC2(CC1)CNC2 (stereo not drawn) [Compound 163] | – | – | – | – | – | – | – | ≥ 1 µM | ≥ 1 µM | > 32 µg/mL | < 8 µg/mL | > 32 µg/mL | > 32 µg/mL | < 8 µg/mL |
| CN(Cc1ccc(-n2ccc(NC(=O)N3CCN(C(=O)C(C)(C)N)CC3)nc2=O)cc1)C12CCC(N)(CC1)C2 [Compound 164] | – | – | – | – | – | – | – | < 0.5 µM | ≥ 1 µM | 8 to 32 µg/mL | < 8 µg/mL | < 8 µg/mL | > 32 µg/mL | < 8 µg/mL |
| CN(Cc1ccc(-n2ccc(NC(=O)N3CCN(C(=O)C(C)(C)N)CC3)nc2=O)cc1)C12CCC(N)(CC1)CC2 [Compound 165] | – | – | – | – | – | – | – | 0.5 to 1 µM | ≥ 1 µM | 8 to 32 µg/mL | < 8 µg/mL | < 8 µg/mL | > 32 µg/mL | < 8 µg/mL |
| CCN(Cc1ccc(-n2ccc(NC(=O)N3CCN(C(=O)C(C)(C)N)CC3)nc2=O)cc1)C12CCC(N)(CC1)C2 [Compound 166] | – | – | – | – | – | – | – | < 0.5 µM | ≥ 1 µM | 8 to 32 µg/mL | < 8 µg/mL | < 8 µg/mL | > 32 µg/mL | < 8 µg/mL |
| CC(C)(N)C(=O)N1CCN(C(=O)Nc2ccn(-c3ccc(CNC45CCC(N)(CC4)CC5)cc3)c(=O)n2)CC1 [Compound 167] | – | – | – | – | – | – | – | < 0.5 µM | ≥ 1 µM | 8 to 32 µg/mL | < 8 µg/mL | < 8 µg/mL | 8 to 32 µg/mL | < 8 µg/mL |
| CC(C)(N)C(=O)N1CCN(C(=O)Nc2ccn(-c3ccc(CNC45CCC(N)(CC4)C5)cc3)c(=O)n2)CC1 [Compound 168] | – | – | – | – | – | – | – | < 0.5 µM | ≥ 1 µM | > 32 µg/mL | < 8 µg/mL | < 8 µg/mL | > 32 µg/mL | < 8 µg/mL |
| CN(Cc1ccc(-n2ccc(NC(=O)N3CCN(C(=O)C(C)(C)N)CC3)nc2=O)cc1)C12CC(N)(C1)C2 [Compound 169] | – | – | – | – | – | – | – | ≥ 1 µM | ≥ 1 µM | > 32 µg/mL | 8 to 32 µg/mL | > 32 µg/mL | > 32 µg/mL | > 32 µg/mL |
| CCN(Cc1ccc(-n2ccc(NC(=O)N3CCN(C(=O)C(C)(C)N)CC3)nc2=O)cc1)C12CC(N)(C1)C2 [Compound 170] | – | – | – | – | – | – | – | < 0.5 µM | ≥ 1 µM | > 32 µg/mL | < 8 µg/mL | > 32 µg/mL | > 32 µg/mL | > 32 µg/mL |
| CC(C)(N)C(=O)N1CCN(C(=O)Nc2ccn(-c3ccc(CNC45CC(N)(C4)C5)cc3)c(=O)n2)CC1 [Compound 171] | – | – | – | – | – | – | – | ≥ 1 µM | ≥ 1 µM | > 32 µg/mL | 8 to 32 µg/mL | > 32 µg/mL | > 32 µg/mL | > 32 µg/mL |
| CCN(Cc1ccc(-n2ccc(NC(=O)N3CCN(C(=O)C(C)(C)N)CC3)nc2=O)cc1)C12CCC(N)(CC1)CC2 [Compound 172] | – | – | – | – | – | – | – | < 0.5 µM | ≥ 1 µM | 8 to 32 µg/mL | < 8 µg/mL | < 8 µg/mL | > 32 µg/mL | < 8 µg/mL |
| CC(C)(N)C(=O)N1CCN(C(=O)Nc2ccn(-c3ccc(CNC45CC(CN)(C4)C5)cc3)c(=O)n2)CC1 [Compound 173] | – | – | – | – | – | – | – | ≥ 1 µM | ≥ 1 µM | > 32 µg/mL | < 8 µg/mL | > 32 µg/mL | > 32 µg/mL | > 32 µg/mL |
| CN(Cc1ccc(-n2ccc(NC(=O)N3CCN(C(=O)C(C)(C)N)CC3)nc2=O)cc1)C12CC(CN)(C1)C2 [Compound 174] | – | – | – | – | – | – | – | ≥ 1 µM | ≥ 1 µM | > 32 µg/mL | < 8 µg/mL | 8 to 32 µg/mL | > 32 µg/mL | < 8 µg/mL |
| CCN(Cc1ccc(-n2ccc(NC(=O)N3CCN(C(=O)C(C)(C)N)CC3)nc2=O)cc1)C12CC(CN)(C1)C2 [Compound 175] | – | – | – | – | – | – | – | ≥ 1 µM | ≥ 1 µM | > 32 µg/mL | < 8 µg/mL | < 8 µg/mL | > 32 µg/mL | < 8 µg/mL |
| CC(Cc1ccc(-n2ccc(NC(=O)N3CCN(C(=O)C(C)(C)N)CC3)nc2=O)cc1)NC1CC2(CC(N)C2)C1 (stereo not drawn) [Compound 176] | – | – | – | – | – | – | – | ≥ 1 µM | ≥ 1 µM | > 32 µg/mL | < 8 µg/mL | 8 to 32 µg/mL | > 32 µg/mL | < 8 µg/mL |
| CC(C)(N)C(=O)N1CCN(C(=O)Nc2ccn(-c3ccc(CCNC4CC5(CC(N)C5)C4)cc3)c(=O)n2)CC1 (stereo not drawn) [Compound 177] | – | – | – | – | – | – | – | ≥ 1 µM | ≥ 1 µM | > 32 µg/mL | < 8 µg/mL | 8 to 32 µg/mL | > 32 µg/mL | < 8 µg/mL |
